In US4563461A, “Selective method for blocking 5HT2 receptors” (Eli Lilly and Company, priority 1983, dated 1986):
Like-named read-outs stand apart in the source and are kept apart here.

Experiments:
alpha receptors [1] = target: T1, alpha receptors (Rattus norvegicus, UniProt P23944); assay: Antagonism of norepinephrine contraction in isolated rat aorta (apparent dissociation constant, dose ratio); assay type: cell-based; details: for Dose-Ratio (norepinephrine ED50 with test compound / control ED50): 10^-5 molar test compound
T1 construct: their external jugular veins and thoracic aortas dissected free of connective tissue; from tissue; host or cells: thoracic aorta of male Wistar rats
T1 sequence (P23944 1-561): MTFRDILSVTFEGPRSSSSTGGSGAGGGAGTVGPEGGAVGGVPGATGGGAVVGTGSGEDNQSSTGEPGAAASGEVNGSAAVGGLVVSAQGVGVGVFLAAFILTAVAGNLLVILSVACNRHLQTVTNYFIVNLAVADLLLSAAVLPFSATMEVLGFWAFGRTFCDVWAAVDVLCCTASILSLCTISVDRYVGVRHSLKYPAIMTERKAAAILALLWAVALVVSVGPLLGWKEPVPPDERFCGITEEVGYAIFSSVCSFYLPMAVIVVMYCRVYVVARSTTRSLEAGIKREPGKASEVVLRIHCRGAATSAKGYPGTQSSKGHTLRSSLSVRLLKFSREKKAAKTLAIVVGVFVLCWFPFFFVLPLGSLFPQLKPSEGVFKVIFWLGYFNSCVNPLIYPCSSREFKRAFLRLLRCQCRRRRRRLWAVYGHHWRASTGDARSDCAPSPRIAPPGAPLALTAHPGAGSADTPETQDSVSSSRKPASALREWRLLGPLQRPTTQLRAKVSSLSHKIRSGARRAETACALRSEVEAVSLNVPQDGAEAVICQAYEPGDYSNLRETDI
Description: (§1) The apparent dissociation constants (KB) are a measure of affinity for 5HT2 and alpha receptors and are expressed as the negative logarithm and are determined according to the following protocol.
(§2) Male Wistar rats (150-300 gram weight) were killed and their external jugular veins and thoracic aortas dissected free of connective tissue, cannulated in situ and placed in a modified Krebs' bicarbonate buffer in a suitable tissue bath. Two L-shaped 30-gauge stainless-steel hypodermic needles were inserted in each cannula and the dissected vessels gently pushed onto the needles. One needle was attached with thread to a stationary glass rod and the other to the transducer. [The procedure employed was that described by Hooker, Calkins and Fleisch, Blood Vessels, 14, 1, (1977) for use with circular smooth muscle preparations.]
(§3) The modified Krebs' bicarbonate buffer had the following makeup: (concentrations in millimoles): sodium chloride, 118.2; potassium chloride, 4.6; calcium chloride dihydrate, 1.6; potassium dihydrogenphosphate, 1.2; magnesium sulfate, 1.2; dextrose, 10.0; sodium bicarbonate, 24.8; and water q.s. to 1000 g. The tissue baths were maintained at 37° C. and were aerated with 95% oxygen-5% CO2. An initial optimum resting force of 1 and 4 g. was applied to the jugular vein and aorta, respectively. Isometric contractions were recorded as changes in grams of force on a Beckman Dynograph with Statham UC-3 transducers and microscale accessory attachment. Tissues were allowed to equilibrate 1 to 2 hours before exposure to drugs. Control responses to serotonin in the jugular vein and to norepinephrine in the aorta were obtained. The vessels were then incubated with appropriate concentrations of antagonist for one hour. Responses to serotonin or to norepinephrine were then repeated in the presence of the antagonist. Contraction to serotonin was evaluated in the jugular vein since this tissue produces marked responses to serotonin in the absence of alpha receptors--see Cohen and Wiley, J. Pharm. Exp. Ther., 205, 400 (1978). Alpha receptor antagonist activity was evaluated in the aorta.
(§4) Apparent antagonist dissociation constants were determined for each concentration of antagonist according to the following equation: [formula] wherein [B] is the concentration of the antagonist and the dose ratio is the ED50 of the agonist in the presence of the antagonist divided by the control ED50.
The in vitro rat aorta preparation described above was used.

5HT2 receptors [2] = target: T2, 5HT2 receptors (Rattus norvegicus, UniProt P14842); assay: Antagonism of serotonin contraction in isolated rat jugular vein (apparent dissociation constant); assay type: cell-based; details: for Ratio KB alpha / KB 5HT2: rat aorta KB over rat jugular vein KB; for Kb: rat jugular vein, agonist serotonin, antagonist incubated one hour, n in parentheses, read-out: 5HT2 -Log KB ± S.E. (converted)
T2 construct: their external jugular veins and thoracic aortas dissected free of connective tissue; from tissue; host or cells: external jugular vein of male Wistar rats
Description: as §1, §2, §3, §4

alpha receptors [3] = assay: Shift of methoxamine pressor response in pithed SHR; assay type: in vivo, rat; details: i.p., 10 mg./kg.
Description: SHR were anesthesized with halothane, femoral arterial and venous catheters implanted as before and the trachea cannulated. Each rat was pithed by passing a steel rod through the right orbit and down the entire length of the spinal column. The steel rod remained in place for the duration of the experiment. Immediately after pithing, the rats were ventilated with room air via a rodent respirator which eliminated any anesthetic effects. An equilibration period of 15 minutes was observed prior to control measurements and administration of drugs or vehicle i.p. Increasing doses of serotonin or methoxamine were injected i.v. 15 minutes after the equilibration period. The response was recorded and the blood pressure allowed to recover to control levels. […] The test drug was prepared fresh daily and administered by the intraperitoneal route. The compound shifted the serotonin response 22 and 480 fold at 0.1 and 3 mg./kg. dosages whereas at a 10 mg./kg. dose there was no shift in the response to methoxamine, an alpha agonist.

5HT2 receptors [4] = target: T2, 5HT2 receptors; assay type: in vivo; details: pithed SHR, i.p.
Description: SHR were anesthesized with halothane, femoral arterial and venous catheters implanted as before and the trachea cannulated. Each rat was pithed by passing a steel rod through the right orbit and down the entire length of the spinal column. The steel rod remained in place for the duration of the experiment. Immediately after pithing, the rats were ventilated with room air via a rodent respirator which eliminated any anesthetic effects. […] The response was recorded and the blood pressure allowed to recover to control levels. […] The test drug was prepared fresh daily and administered by the intraperitoneal route.

[5] = Blood pressure in spontaneously hypertensive rats (SHR); assay type: in vivo, rat; details: intraperitoneal, 10 mg./kg.
Description: In spontaneously hypertensive rats (SHR), in which blockade of alpha receptors but not 5HT2 receptors lowers blood pressure, there was no effect upon intraperitoneal administration of 1-isopropyl-6-methyl-8β-(1-methyl-2-hydroxy)propoxycarbonyl-5R-ergoline at a 10 mg./kg. dose.

[6] = rat aorta, agonist norepinephrine, antagonist incubated one hour, n in parentheses, read-out: alpha -Log KB ± S.E. (converted)

T2 sequence (P14842 whole entry): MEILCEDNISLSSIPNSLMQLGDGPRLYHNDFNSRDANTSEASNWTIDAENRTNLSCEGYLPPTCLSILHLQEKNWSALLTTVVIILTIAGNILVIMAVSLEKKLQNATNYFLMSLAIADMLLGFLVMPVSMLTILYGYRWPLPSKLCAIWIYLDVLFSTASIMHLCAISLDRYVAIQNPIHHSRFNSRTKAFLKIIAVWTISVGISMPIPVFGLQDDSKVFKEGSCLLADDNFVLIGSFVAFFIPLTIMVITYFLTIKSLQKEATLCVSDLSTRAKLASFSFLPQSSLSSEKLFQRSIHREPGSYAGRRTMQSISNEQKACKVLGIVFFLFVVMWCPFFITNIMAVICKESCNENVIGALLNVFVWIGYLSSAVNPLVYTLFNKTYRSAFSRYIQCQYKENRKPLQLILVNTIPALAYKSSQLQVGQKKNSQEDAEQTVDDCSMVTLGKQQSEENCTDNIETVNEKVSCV

Row | Compound | Dose-Ratio (norepinephrine ED50 with test compound / control ED50) (alpha receptors [1]; rat aorta) | Kb (alpha receptors [1]) [nM] | Ratio KB alpha / KB 5HT2 (5HT2 receptors [2]) | Kb (5HT2 receptors [2]) [nM] | further results
1 | CC(O)COC(=O)[C@@H]1C[C@@H]2c3cccc4c3c(cn4C(C)C)C[C@H]2N(C)C1 (stereo partly drawn) [1-isopropyl-6-methyl-8β-(2-hydroxy)propoxycarbonyl-5R-ergoline] | 1.0 |  |  |  | 
2 | O=C(c1ccc(F)cc1)C1CCN(CCn2c(=O)[nH]c3ccccc3c2=O)CC1 [Ketanserin, reference compound] |  |  |  |  | Kb (alpha receptors [1]; [6]): 12.6 nM
3 | C=CCn1cc2c3c(cccc31)[C@H]1C[C@@H](C(=O)OCCO)CN(C)[C@@H]1C2 [1-allyl-6-methyl-8β-(2-hydroxy)ethoxycarbonyl-5R-ergoline] | 2.4 |  |  |  | 
4 | CNCC12CCC(c3ccccc31)c1ccccc12 [Benzoctamine] |  | 251 | 16 | 15.8 | 
5 | Cc1cc(CCN2CCN(c3cccc(Cl)c3)CC2)n[nH]1 [Mepiprazole] |  |  | 0.4 | 12.6 | Kb (alpha receptors [1]; [6]): 5.01 nM
6 | CC(O)C(C)OC(=O)[C@@H]1C[C@@H]2c3cccc4c3c(cn4C(C)C)C[C@H]2N(C)C1 (stereo partly drawn) [1-isopropyl-6-methyl-8β-(1-methyl-2-hydroxy)propoxycarbonyl-5R-ergoline] | 3.6 | 13800 | 300,000 | 0.0537 | Shift in the response to methoxamine (alpha receptors [3]): no shift; Shift of the serotonin response (5HT2 receptors [4]; 0.1 mg./kg.): 22 fold; Shift of the serotonin response (5HT2 receptors [4]; 3 mg./kg.): 480 fold; Effect on blood pressure [5]: no effect
7 | O=c1n(CCCN2CCN(c3cccc(Cl)c3)CC2)nc2ccccn12 [Trazodone, reference compound] |  | 158 |  |  | 
